Assay [1] relates to S. aureus ATCC TCH1516 skin infection. Put plainly: Topical treatment of incision MRSA skin infection (Trial 1). In kind it is in vivo, BALB/c mice. To be noted: for Group mean (±SE) of log CFU/infection site: 10 mg/kg/day topical, twice daily for 6 days from 24 h post-infection, n = 6, vehicle control 5.33 ± 0.64. The protocol:
Trial 1: In this trial, the infection model was performed following methods that were previously reported ([Kugelberg et al., 2005]; [Guo et al., 2013]; [Simonetti et al., 2020]). […] Seven groups (n = 6 mice/group) were acclimatized to the environment for at least 7 days before the start of the experiment. Once the hair on the dorsum of the mice was shaved, a 1 cm incision was made and a 50 μl suspension of S. aureus ATCC TCH1516 in PBS, containing 2 × 10^7 CFUs, was applied directly to the incision. Mice were housed individually until inoculum dried at the incision site (Day (D) 0). Approximately 24 h later (D1), treatment was applied topically twice daily for 6 days. […] Another group received the no-drug vehicle control (0.6% noble agar in citrate buffer). Weights of mice were measured at least once per day, while behavior and the wounds were monitored multiple times per day. Mice were sacrificed 1 day after the last topical treatment (D7). Dermal tissues at the infected sites were sampled and homogenized in sterile PBS. The homogenates were serially diluted and plated on THyex agar for determining CFUs.

The test system of assay [2] is S. aureus ATCC 33591 (MRSA). In words: MIC in broth (CLSI M07-A8) against MRSA 33591. In kind it is cell-based, Staphylococcus aureus. The protocol:
(§1) Preparation of the antimicrobial agent and bacterial inoculum for MICs was performed by following the method described by the Clinical and Laboratory Standards Institute (CLSI; M07-A8; [CLSI, 2018]) and as previously reported by our group ([Chen et al., 2013]; [Escano et al., 2017]; [Geng and Smith, 2018]). […] A single colony from an overnight culture of S. aureus was inoculated in 10 ml of THyex broth (30 g/L Todd Hewitt broth, 3 g/L yeast extract). The inoculum was placed in a shaking incubator at 37°C and 280 rpm and grown to an OD600 of 0.6–0.8. The culture broth was then diluted to an OD600 of 0.132, after which a 20-fold dilution in fresh broth was performed resulting in a ~5 × 10^5 CFU/ml cell density. Mu1140 and Mu1140 analogs were solubilized in dimethyl sulfoxide (DMSO) at a concentration of 1 mg/ml as the stock solution. […] The same volume of DMSO was added to all test samples including the no-drug control. The cultures were placed in a shaking incubator at 37°C and 200 rpm (Stuart orbital incubator SI500). A 100 μl sample from each culture was taken at each time point of 0, 0.25, 0.5, 0.75, 1, 1.5, 2, 4, 8, 18, and 24 h and was serially diluted in fresh medium before being spread on THyex agar plates (30 g/L Todd Hewitt broth, 3 g/L yeast extract, 15 g/L agar) for determining the CFUs. The plates were allowed to grow for 24 h at 37°C before the colony-forming units (CFUs) were counted. The CFU/ml for each time-point at each drug concentration was determined using at least two independent cultures. Plates having 30 to 300 colonies were used for CFU measurements.

Assay [3] has as its system S. aureus ATCC33591 skin infection. Put plainly: Subcutaneous treatment of subcutaneous MRSA skin infection (Trial 2). In kind it is in vivo, BALB/c mice. To be noted: three times per day for 3 days from 48 h post-infection, n = 8. The protocol: Trial 2: In this trial, the infection model was performed following methods that were previously reported ([Guo et al., 2013]; [Dejani et al., 2016]). […] Mice were acclimatized to the environment for at least 7 days before initiating experiments. After shaving the hair on the dorsum of the mice, a 50 μl suspension of S. aureus ATCC33591 in PBS, containing 1.5 × 10^7 CFUs, was injected subq (D0). As noted in trial 1, no bleeding was observed during all injections. […] Mice were separated into four groups (n = 8 for treatment and no-drug vehicle control groups; D2). […] The last group received the no-drug vehicle control (sterile water with 20% DMSO). Treatments were administered three times per day to the mice through a 3-point subq injection around the scab with the needle pointed toward the center of the wound. Weights of mice were measured at least once per day, while behavior and the wound sites were monitored multiple times per day. Mice were sacrificed approximately 24-h after the last subq treatment (D6). Dermal tissues at the infected sites were sampled and homogenized in sterile PBS. The homogenates were serially diluted and plated on THyex agar for determining CFUs.

The test system of assay [4] is MRSA (S. aureus ATCC 33591) systemic infection. Put plainly: In vivo MRSA systemic infection model (survival). To be noted: single 10 mg/kg i.v. dose 1 h post-infection.
Experimental: The vehicle (saline with 15% DMSO) served as the no-drug control group of mice. Each mouse was monitored every 4 h during the first 2 days post-infection (day 0 to day 2), and every 8 h from day 2 to day 5.
For the next assay, the system named is S. aureus ATCC 33591. In words: Time-kill study (kill kinetics). In kind it is cell-based, Staphylococcus aureus. As for the experimental part: as §1
In the next assay the test system is clinical MRSA isolates. In words: MIC in broth against a panel of clinical MRSA isolates. In kind it is cell-based. To be noted: Staphylococcus aureus.
Assay [5] deals with S. aureus ATCC33591 skin infection. In words: Intravenous treatment of an in vivo MRSA acute skin infection. Set-up: species or system BALB/c mice. As for the experimental part: Mice were acclimatized to the environment for at least 7 days before initiating experiments. After shaving the hair on the dorsum of the mice, a 50 μl suspension of S. aureus ATCC33591 in PBS, containing 1.5 × 10^7 CFUs, was injected subcutaneously (subq). No bleeding was observed during all injections. […] Mice were separated into four groups (n = 8 for the treatment groups and n = 6 for the control). […] The last group received the no-drug vehicle control (PBS with 5% DMSO). Weights of mice were measured at least once per day, while behavior and the wounds were monitored multiple times per day. Mice were sacrificed approximately 24-h after the last i.v. treatment (Day 6; D6). Dermal tissues at the infected sites were sampled and homogenized in sterile PBS. The homogenates were serially diluted and plated on THyex agar for determining CFUs.

Where [6] appears, read: Staphylococcus aureus, MRSA 33591, in broth, read-out: MIC.
[7] abbreviates: 10 mg/kg/day i.v. for 5 days, n = 8.

In brackets after ≈: the same amount, converted by molar mass. Several values for one entry are separate records, joined by “and”; a condition that tells them apart may be missing. Equal values may be shown once. Where a name gives a salt, the structure may show the parent alone. Read-outs that look alike come from different tables or passages of the source.

As a reminder, the MIC is the smallest concentration in the dilution series that meets the test's criterion for growth inhibition. As for `CC(=O)O[C@H]1C[C@@]2(C)[C@@H](C[C@@H](O)[C@H]3[C@@]4(C)CC[C@@H](O)[C@@H](C)[C@@H]4CC[C@@]32C)/C1=C(\CCC=C(C)C)C(=O)O` [Fusidic acid], the “log reduction in bacterial load compared to the vehicle control group” value in assay [1] (10 mg/kg/day topical for 6 days, not statistically significant) worked out at 2.17 log. Also, the “Group mean (±SE) of log CFU/infection site” value in assay [1] was 3.16 ± 0.50 log CFU/infection site; in assay [1] (listed as fusidic acid) it was 3.16 log CFU/infection site. In addition, the MIC in assay [2] (setting [6]) was 1 µg/mL (≈ 1.94 µM).
Regarding `CC(=O)NC[C@H]1CN(c2ccc(N3CCOCC3)c(F)c2)C(=O)O1` [Linezolid, linezolid], the MIC in assay [2] (setting [6]) turned out to be 1 µg/mL (≈ 2.96 µM). For the same compound, the “log reduction in CFUs (mean difference to vehicle control)” value was 0.6 log in assay [3] (75 mg/kg/day subq) and 0.60 log in assay [3] (75 mg/kg/day subq, listed as linezolid).
`CN[C@H](CC(C)C)C(=O)N[C@H]1C(=O)N[C@@H](CC(N)=O)C(=O)N[C@H]2C(=O)N[C@H]3C(=O)N[C@H](C(=O)N[C@H](C(=O)O)c4cc(O)cc(O)c4-c4cc3ccc4O)[C@H](O)c3ccc(c(Cl)c3)Oc3cc2cc(c3O[C@@H]2O[C@H](CO)[C@@H](O)[C@H](O)[C@H]2O[C@H]2C[C@](C)(N)[C@H](O)[C@H](C)O2)Oc2ccc(cc2Cl)[C@H]1O` [Vancomycin, Vancomycin hydrochloride]: in assay [4], the “survival at 12 h post-infection” value was 75.0%. In addition, the “survival at 24 h post-infection” value in assay [4] was 50%. The “reduction in viable cells” value in the assay with S. aureus ATCC 33591 (0.5× MIC) is “negligible differences between the vehicle control and the treatment groups”. In the assay with S. aureus ATCC 33591 (1× and 2× MIC), the “time needed for a 2-log reduction in CFUs” value stood at 8 hours. In addition, in the assay on S. aureus ATCC 33591 (2× MIC), the “time until viable cell counts dropped below the detection limit” value is on record as “more than 8 h”. In the assay with S. aureus ATCC 33591 (2× MIC), the “viable cells at 18 and 24 h post-administration” value is given as “no viable cells”. Further, the MIC turned out to be 2 µg/mL in the assay with clinical MRSA isolates (MRSA / USA300, strain USA300, in broth); 2 µg/mL against clinical MRSA isolates (MRSA, strain 602, in broth); 2 µg/mL in the assay on clinical MRSA isolates (MRSA, strain 611, in broth); 2 µg/mL in the assay on clinical MRSA isolates (MRSA, strain 616, in broth); 2 µg/mL with clinical MRSA isolates (MRSA, strain 631, in broth); 1 µg/mL against clinical MRSA isolates (MRSA, strain 640, in broth). Further, the MIC in the assay with clinical MRSA isolates (MRSA, strain 641, in broth) is 2 µg/mL; with clinical MRSA isolates (MRSA, strain 644, in broth), 2 µg/mL; against clinical MRSA isolates (MRSA, strain 30476, in broth), 2 µg/mL; against clinical MRSA isolates (MRSA, strain 31225, in broth) it was 1 µg/mL; with clinical MRSA isolates (MRSA, strain 31258, in broth) it was 1 µg/mL; in the assay on clinical MRSA isolates (MRSA, strain CA347, in broth), 2 µg/mL. Besides, the MIC was 4 µg/mL in the assay on clinical MRSA isolates (MRSA, strain CA513, in broth); 2 µg/mL with clinical MRSA isolates (MRSA, strain CA-409, in broth); 2 µg/mL in the assay with clinical MRSA isolates (MRSA, strain CO-34, in broth); 4 µg/mL with clinical MRSA isolates (MRSA, strain GA442, in broth); 2 µg/mL against clinical MRSA isolates (MRSA, strain HFH30364, in broth); 1 µg/mL with clinical MRSA isolates (MRSA, strain HFH30522, in broth). Further, the MIC came to 2 µg/mL against clinical MRSA isolates (MRSA, strain N315, in broth); 0.5 µg/mL against clinical MRSA isolates (MRSA, strain SAEH06, in broth); 2 µg/mL in assay [2] (Staphylococcus aureus). The “effect on bacterial load at the skin lesion site” value in assay [5] (setting [7]) is “did not have any significant effect on the bacterial load”; in assay [5] (10 mg/kg/day i.v. for 5 days, n = 8, listed as vancomycin) it was “did not show any statistical significance to vehicle control”.
As to daptomycin, the “effect on bacterial load at the lesion site” value in assay [5] (25 mg/kg i.v. dose, same experimental conditions, data not shown) is recorded as “no impact on the bacterial load”.
mutacin 1140 [Mu1140]: in assay [4], the “survival at 12 h post-infection” value was 100% and the “survival at 24 h post-infection” value came out at 83.3%. Besides, the “Group mean (±SE) of log CFU/infection site” value in assay [1] was 5.23 log CFU/infection site and 5.23 ± 0.93 log CFU/infection site. In assay [2] (MRSA 33591, in broth), the MIC stood at 0.5 µg/mL. Besides, in assay [2] (S. aureus 33591), the “MIC compared to fusidic acid and linezolid” value is recorded as “two-fold lower”; the “MIC compared to vancomycin” value is recorded as “four-fold lower”. The “effect on bacterial load at the skin lesion site” value in assay [5] (setting [7]) is recorded as “statistically significant reduction in CFUs”. Also, the “mean difference in bacteria load to the vehicle control group” value in assay [5] (10 mg/kg/day i.v. for 5 days, Cohen's d = 1.27, p = 0.0265) was found to be 0.61 log CFU. Moreover, in assay [5] (10 mg/kg/day i.v. twice daily for 5 days from 48 h post-infection, n = 8, vehicle control 7.82), the “bacteria count at the lesion” value is recorded as 7.21 log CFU. Moreover, the “log reduction in CFUs (mean difference to vehicle control)” value in assay [3] (25 mg/kg/day subq) came to 0.78 log.

(Values after publication PMC9794991, “Evaluation of analogs of mutacin 1140 in systemic and cutaneous methicillin-resistant Staphylococcus aureus infection models in mice” (Frontiers in Microbiology, 2022).)
